Source: ChEMBL document CHEMBL3259531, “Discovery of novel type II c-Met inhibitors based on BMS-777607” (Eur J Med Chem, 2014)
Blank lines part the entries; values can stand above or below the molecule they belong to. The source made the active and inactive calls. The calls are words filed in the database; no cut-off is given here.

What was measured:
[1] = molecular target: T1, Hepatocyte growth factor receptor (Homo sapiens, UniProt P08581); assay: Inhibition of c-Met (unknown origin) using poly Glu:Tyr (4:1) as substrate at 10 uM after 60 mins by ELISA relative to control
[2] = molecular target: T1, Hepatocyte growth factor receptor; assay: Inhibition of c-Met (unknown origin) using poly Glu:Tyr (4:1) as substrate after 60 mins by ELISA
BaF3 [3] = assay: Cytotoxicity against mouse BAF3 cells expressing TPR-Met assessed as growth inhibition after 72 hrs; settings: BaF3, 72 h
[4] = Cytotoxicity against human MKN45 cells assessed as growth inhibition after 72 hrs; settings: MKN-45, 72 h
[5] = molecular target: T1, Hepatocyte growth factor receptor
BaF3 [6] = assay: Cytotoxicity against mouse BAF3 cells expressing TPR-Met assessed as growth inhibition at 10 uM after 72 hrs relative to control; assay type: functional; settings: BaF3, 72 h, read-out: GI
[7] = molecular target: T1, Hepatocyte growth factor receptor; assay: Inhibition of c-Met (unknown origin)
[8] = molecular target: T1, Hepatocyte growth factor receptor; remark: listed apart in the source
BaF3 [9] = assay: Cytotoxicity against mouse BAF3 cells expressing TPR-Met assessed as growth inhibition at 1 uM after 72 hrs; assay type: functional, cell-based

inhibition [1]: 29.7%
Structure (SMILES): COc1cc2nccc(Oc3ccc(NC(=O)c4cccn(-c5ccc(F)cc5)c4=O)cc3F)c2cc1OC

inhibition [2]: inactive
Structure (SMILES): Nc1nccc(Oc2ccc(N3CCCC(C(=O)Nc4ccccc4)S3(=O)=O)cc2F)c1Cl (stereo not drawn)

Structure (SMILES): CCOc1ccn(-c2ccc(F)cc2)c(=O)c1C(=O)Nc1ccc(Oc2ccnc(N)c2Cl)c(F)c1 [BMS-777607]
IC50 (BaF3 [3]): 188 nM
IC50 [4]: 286 nM

IC50 [5]: Not Active
Structure (SMILES): Cc1ccc(NC(=O)C2CCCN(c3ccc(Oc4ccnc(N)c4Cl)c(F)c3)S2(=O)=O)cc1 (stereo not drawn)

Structure (SMILES): O=C(Nc1ccc(Oc2ncnc3[nH]ccc23)c(F)c1)c1cccn(-c2ccc(F)cc2)c1=O
inhibition of growth at 10 µM (BaF3 [6]): > 80%

inhibition [2]: inactive
Structure (SMILES): Nc1nccc(Oc2ccc(N3CCCC(C(=O)Nc4ccc(F)cc4)S3(=O)=O)cc2F)c1Cl (stereo not drawn)

Structure (SMILES): CCOc1ccn(-c2ccc(F)cc2)c(=O)c1C(=O)Nc1ccc(Oc2ncnc3[nH]ccc23)c(F)c1
inhibition of growth at 10 µM (BaF3 [6]): > 80%

IC50 [7]: 27 nM
Structure (SMILES): CCn1cnc(-c2cc3nccc(Oc4ccc(NC(=S)N5CCN(c6ccc(F)cc6)C5=O)cc4F)c3s2)c1

IC50 [8]: 39 nM
Structure (SMILES): Nc1nccc(Oc2ccc(NC(=O)c3cccn(-c4ccc(F)cc4)c3=O)cc2F)n1

Structure (SMILES): CCOc1ccn(-c2ccc(F)cc2)c(=O)c1C(=O)Nc1ccc(Oc2ccnc3cc(OC)c(OC)cc23)c(F)c1
inhibition of growth at 10 µM (BaF3 [6]): > 80%
IC50 (BaF3 [3]): 19.5 nM
IC50 [4]: 39.7 nM

Structure (SMILES): COc1cc2nccc(Oc3ccc(NC(=O)c4c(I)ccn(-c5ccc(F)cc5)c4=O)cc3F)c2cc1OC
inhibition of growth at 10 µM (BaF3 [6]): > 80%
growth inhibition (GI) (BaF3 [9]): Active

Structure (SMILES): COc1cc2nccc(Oc3ccc(NC(=O)c4c(OC)ccn(-c5ccc(F)cc5)c4=O)cc3F)c2cc1OC
inhibition of growth at 10 µM (BaF3 [6]): > 80%
IC50 (BaF3 [3]): 36.3 nM
IC50 [4]: 57.7 nM
